Test results reported in ChEMBL document CHEMBL1201862, “PubChem BioAssay data set” (2004).
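Values below derive from 48-hour exposures of cells grown in 96-well plates, with endpoints linearly interpolated between the two concentrations bracketing the appropriate inhibition level. GI50: concentration for 50% inhibition of growth.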 Calls of active or inactive are those of the source. Cut-off read from the data, not from the text of the source: active = GI50 up to about 1.1 µM and inactive = higher.

Tests used:
Assay in all cases: growth of human tumour cells (NCI), 48 h
NCI/ADR-RES = system: NCI/ADR-RES
PC-3 = system: PC-3
OVCAR-4 = system: OVCAR-4
HT-29 = system: HT-29
HL-60 = system: HL-60
BT-549 = system: BT-549
TK-10 = system: TK-10
SNB-19 = system: SNB-19
HCT-15 = system: HCT-15
SF-268 = system: SF-268
NCI-H460 = system: NCI-H460
A498 = system: A498
SNB-75 = system: SNB-75
SR = system: SR
OVCAR-5 = system: OVCAR-5
COLO 205 = system: COLO 205
CCRF-CEM = system: CCRF-CEM
UACC-62 = system: UACC-62
CAKI-1 = system: CAKI-1
SK-OV-3 = system: SK-OV-3

Row | SMILES | GI50 (NCI/ADR-RES) | GI50 (PC-3) | GI50 (OVCAR-4) | GI50 (HT-29) | GI50 (HL-60) | GI50 (BT-549) | GI50 (TK-10) | GI50 (SNB-19) | GI50 (HCT-15) [µM] | GI50 (SF-268) | GI50 (NCI-H460) | GI50 (A498) | GI50 (SNB-75) | GI50 (SR) | GI50 (OVCAR-5) | GI50 (COLO 205) | GI50 (CCRF-CEM) | GI50 (UACC-62) | GI50 (CAKI-1) | GI50 (SK-OV-3)
1 | CC(=O)Nc1ccc(Nc2cc(O)nc(O)n2)cc1 | > 100 µM (inactive) | > 100 µM (inactive) | > 100 µM (inactive) | > 100 µM (inactive) | > 100 µM (inactive) | > 100 µM (inactive) | > 100 µM (inactive) | > 100 µM (inactive) | > 100 | > 100 µM (inactive) | > 100 µM (inactive) | > 100 µM (inactive) | > 100 µM (inactive) | > 100 µM (inactive) | > 100 µM (inactive) | > 100 µM (inactive) | – | – | – | –
2 | CN(C)c1cccc(F)c1C(=O)NC(=O)Nc1ccc(Cl)cc1 | 3.21 µM (inactive) | 2.83 µM (inactive) | > 43 µM (inactive) | 1.07 µM (active) | 0.533 µM (active) | 8.95 µM (inactive) | > 100 µM (inactive) | > 26.1 µM (inactive) | 0.579 | 12 µM (inactive) | 1.91 µM (inactive) | 11.5 µM (inactive) | 2.4 µM (inactive) | 0.218 µM (active) | 8.09 µM (inactive) | 2.21 µM (inactive) | 0.745 µM (active) | 2.38 µM (inactive) | 3.78 µM (inactive) | 3.75 µM (inactive)
3 | C[S+]([O-])c1cc(=O)c2ccccc2s1 (configuration not stated) | 16.7 µM (inactive) | 15.5 µM (inactive) | 3.03 µM (inactive) | 4.35 µM (inactive) | 1.99 µM (inactive) | 14.5 µM (inactive) | 6.68 µM (inactive) | 18.4 µM (inactive) | 3.03 | 10.2 µM (inactive) | 14.9 µM (inactive) | 11.5 µM (inactive) | 11.4 µM (inactive) | 1.56 µM (inactive) | 9.42 µM (inactive) | 2.32 µM (inactive) | 1.7 µM (inactive) | 7.31 µM (inactive) | 3.09 µM (inactive) | 24.5 µM (inactive)
4 | Brc1ccc2nc(-c3cccs3)nc(N3CCN(c4ccccc4)CC3)c2c1 | > 100 µM (inactive) | > 100 µM (inactive) | > 100 µM (inactive) | > 100 µM (inactive) | > 100 µM (inactive) | > 100 µM (inactive) | > 100 µM (inactive) | > 100 µM (inactive) | > 100 | > 100 µM (inactive) | > 100 µM (inactive) | > 100 µM (inactive) | > 100 µM (inactive) | > 100 µM (inactive) | > 100 µM (inactive) | > 100 µM (inactive) | – | > 100 µM (inactive) | > 100 µM (inactive) | > 100 µM (inactive)
5 | COC1C=C(NCC2(CO)CCC2)N=C(N)N1 (configuration not stated) | > 100 µM (inactive) | > 100 µM (inactive) | > 100 µM (inactive) | > 100 µM (inactive) | > 100 µM (inactive) | > 100 µM (inactive) | – | > 100 µM (inactive) | > 100 | > 100 µM (inactive) | > 100 µM (inactive) | 95.1 µM (inactive) | > 100 µM (inactive) | > 100 µM (inactive) | > 100 µM (inactive) | > 100 µM (inactive) | > 100 µM (inactive) | > 100 µM (inactive) | > 100 µM (inactive) | > 100 µM (inactive)
6 | C#CCn1c(=O)c(Cl)cn(/C(=C/C(=O)OCC)C(=O)OCC)c1=O | 26 µM (inactive) | 16.6 µM (inactive) | 17.2 µM (inactive) | 18.4 µM (inactive) | 3.05 µM (inactive) | 18.5 µM (inactive) | 2.43 µM (inactive) | 39.8 µM (inactive) | 6.79 | 27.9 µM (inactive) | 32.4 µM (inactive) | 22.9 µM (inactive) | 14.7 µM (inactive) | 2.32 µM (inactive) | 16.9 µM (inactive) | 1.04 µM (active) | 5.2 µM (inactive) | 15.8 µM (inactive) | 2.99 µM (inactive) | 31.6 µM (inactive)
7 | COc1cccc2cc(C(N)=O)c(=N)oc12 | 57.1 µM (inactive) | 65.3 µM (inactive) | 53.5 µM (inactive) | 48.4 µM (inactive) | 58.7 µM (inactive) | > 100 µM (inactive) | – | 82 µM (inactive) | 52.6 | 51.1 µM (inactive) | 37.2 µM (inactive) | > 100 µM (inactive) | 63.2 µM (inactive) | 58.2 µM (inactive) | 51.3 µM (inactive) | 49.4 µM (inactive) | 40.6 µM (inactive) | 31.3 µM (inactive) | 39.4 µM (inactive) | 49.9 µM (inactive)
8 | N#C/N=C(/NCc1ccccc1)N(Cc1ccccc1)Cc1ccccc1 | 30.3 µM (inactive) | 28.2 µM (inactive) | 23.8 µM (inactive) | > 10 µM (inactive) | 16.8 µM (inactive) | 61.4 µM (inactive) | 24.8 µM (inactive) | > 89.1 µM (inactive) | 20.7 | 22.2 µM (inactive) | 19.6 µM (inactive) | > 10 µM (inactive) | – | 24.8 µM (inactive) | 29.9 µM (inactive) | > 10 µM (inactive) | 16.1 µM (inactive) | 8.13 µM (inactive) | 28.5 µM (inactive) | > 10 µM (inactive)
9 | COc1cccc(C(=O)C(O)c2cccc(OC)c2OC)c1OC (configuration not stated) | > 100 µM (inactive) | > 100 µM (inactive) | > 100 µM (inactive) | > 100 µM (inactive) | > 100 µM (inactive) | > 100 µM (inactive) | > 100 µM (inactive) | > 100 µM (inactive) | > 100 | > 100 µM (inactive) | > 100 µM (inactive) | > 100 µM (inactive) | > 100 µM (inactive) | > 100 µM (inactive) | > 100 µM (inactive) | > 100 µM (inactive) | > 100 µM (inactive) | > 100 µM (inactive) | > 100 µM (inactive) | > 100 µM (inactive)
10 | CO/N=C(/C(=O)OC)c1ccccc1COc1ccccc1C(F)(F)F | 29.3 µM (inactive) | 33.5 µM (inactive) | 7.21 µM (inactive) | 26.1 µM (inactive) | 10.5 µM (inactive) | 79.1 µM (inactive) | 54.5 µM (inactive) | 98.2 µM (inactive) | 33.3 | 32.6 µM (inactive) | 32.4 µM (inactive) | 39.7 µM (inactive) | – | 8.32 µM (inactive) | > 100 µM (inactive) | 25.4 µM (inactive) | 13 µM (inactive) | 26.3 µM (inactive) | 20.1 µM (inactive) | 16.6 µM (inactive)
11 | O=P12N(CCN1c1ccccc1)CCN2c1ccccc1 | > 100 µM (inactive) | > 100 µM (inactive) | > 100 µM (inactive) | > 100 µM (inactive) | > 100 µM (inactive) | > 100 µM (inactive) | > 100 µM (inactive) | > 100 µM (inactive) | > 100 | > 100 µM (inactive) | > 100 µM (inactive) | > 100 µM (inactive) | 63.7 µM (inactive) | > 100 µM (inactive) | > 100 µM (inactive) | > 100 µM (inactive) | > 100 µM (inactive) | > 100 µM (inactive) | > 100 µM (inactive) | > 100 µM (inactive)
12 | O=C(Nc1ccccc1)c1cc(S(=O)(=O)N2CCNNC2=O)c(S)cc1Cl | 34.7 µM (inactive) | > 100 µM (inactive) | > 100 µM (inactive) | – | > 100 µM (inactive) | 37.5 µM (inactive) | > 100 µM (inactive) | > 100 µM (inactive) | 59.2 | > 100 µM (inactive) | > 100 µM (inactive) | > 100 µM (inactive) | > 100 µM (inactive) | 95.3 µM (inactive) | > 100 µM (inactive) | > 100 µM (inactive) | 71.9 µM (inactive) | > 100 µM (inactive) | > 100 µM (inactive) | –
13 | Nc1c(S(=O)(=O)O)cc(Nc2cccc(S(=O)(=O)/C=C/S(=O)(=O)O)c2)c2c1C(=O)c1ccccc1C2=O | > 100 µM (inactive) | > 100 µM (inactive) | > 100 µM (inactive) | > 100 µM (inactive) | > 100 µM (inactive) | > 100 µM (inactive) | > 100 µM (inactive) | > 100 µM (inactive) | > 100 | > 100 µM (inactive) | > 100 µM (inactive) | > 100 µM (inactive) | 34.7 µM (inactive) | > 100 µM (inactive) | > 100 µM (inactive) | > 100 µM (inactive) | > 100 µM (inactive) | > 100 µM (inactive) | > 100 µM (inactive) | > 100 µM (inactive)
14 | Nc1cc(CO)cc(Nc2c3ccccc3nc3ccccc23)c1 | 17.7 µM (inactive) | 15.5 µM (inactive) | 16 µM (inactive) | 14.7 µM (inactive) | > 100 µM (inactive) | 14.5 µM (inactive) | 16 µM (inactive) | – | 17.6 | 17.9 µM (inactive) | 25.7 µM (inactive) | 24.6 µM (inactive) | 15.8 µM (inactive) | 53 µM (inactive) | 16.7 µM (inactive) | 11.6 µM (inactive) | 6.78 µM (inactive) | 17.4 µM (inactive) | 17.5 µM (inactive) | 16 µM (inactive)
15 | NC(Cn1ccc(=O)c(O)c1)C(=O)O (configuration not stated) [MIMOSINE] | > 100 µM (inactive) | > 100 µM (inactive) | > 100 µM (inactive) | > 100 µM (inactive) | 81.5 µM (inactive) | > 100 µM (inactive) | > 100 µM (inactive) | > 100 µM (inactive) | > 100 | > 100 µM (inactive) | > 100 µM (inactive) | > 100 µM (inactive) | – | 49.4 µM (inactive) | > 100 µM (inactive) | > 100 µM (inactive) | 33.7 µM (inactive) | > 100 µM (inactive) | > 100 µM (inactive) | > 100 µM (inactive)
